Numbers after ± are expanded uncertainties.
Key:
[1] = xn = mol fraction of the nth substance listed; conditions: 101 kPa, Liquid; for speed of sound: Sing-around technique in a fixed-path interferometer
[2] = refractive index (Na D-line) (dimensionless); xn = mol fraction of the nth substance listed; conditions: 101 kPa, Liquid, Standard Abbe refractometry

CCC(C)=O [butanone] + C1CCCCC1
Conditions | mass density, 293.15 K [kg/m3] | mass density, 298.15 K [kg/m3] | mass density, 303.15 K [kg/m3] | refractive index, 293.15 K | refractive index, 298.15 K | refractive index, 303.15 K | speed of sound, 293.15 K [m/s] | speed of sound, 298.15 K [m/s] | speed of sound, 303.15 K [m/s]
[1], x2 = 0 | 805.6 ± 0.5 | 799.7 ± 0.5 | 794.9 ± 0.5 | – | – | – | 1212 ± 2 | 1192 ± 2 | 1163 ± 2
[1], x2 = 0.0472 | 802.6 ± 0.5 | 796.4 ± 0.5 | 791.5 ± 0.5 | – | – | – | 1212 ± 2 | 1190 ± 2 | 1159 ± 2
[1], x2 = 0.0979 | 799.8 ± 0.5 | 793.7 ± 0.5 | 788.8 ± 0.5 | – | – | – | 1213 ± 2 | 1190 ± 2 | 1159 ± 2
[1], x2 = 0.1986 | 794.7 ± 0.5 | 788.8 ± 0.5 | 784 ± 0.5 | – | – | – | 1212 ± 2 | 1190 ± 2 | 1158 ± 2
[1], x2 = 0.2973 | 790.3 ± 0.5 | 784.8 ± 0.5 | 779.9 ± 0.5 | – | – | – | 1212 ± 2 | 1190 ± 2 | 1158 ± 2
[1], x2 = 0.3975 | 786.6 ± 0.5 | 781.4 ± 0.5 | 776.4 ± 0.5 | – | – | – | 1216 ± 2 | 1192 ± 2 | 1161 ± 2
[1], x2 = 0.497 | 783.7 ± 0.5 | 778.4 ± 0.5 | 773.5 ± 0.5 | – | – | – | 1221 ± 2 | 1198 ± 2 | 1166 ± 2
[1], x2 = 0.6045 | 781 ± 0.5 | 776.1 ± 0.5 | 771.1 ± 0.5 | – | – | – | 1229 ± 2 | 1204 ± 2 | 1172 ± 2
[1], x2 = 0.6922 | 779.5 ± 0.5 | 774.6 ± 0.5 | 769.6 ± 0.5 | – | – | – | 1236 ± 2 | 1212 ± 2 | 1179 ± 2
[1], x2 = 0.7984 | 778.2 ± 0.5 | 773.4 ± 0.5 | 768.5 ± 0.5 | – | – | – | 1248 ± 2 | 1222 ± 2 | 1188 ± 2
[1], x2 = 0.8978 | 777.8 ± 0.5 | 773.1 ± 0.5 | 768.2 ± 0.5 | – | – | – | 1261 ± 2 | 1236 ± 2 | 1200 ± 2
[1], x2 = 0.9476 | 778 ± 0.5 | 773.2 ± 0.5 | 768.5 ± 0.5 | – | – | – | 1269 ± 2 | 1244 ± 2 | 1207 ± 2
[2], x2 = 0 | – | – | – | 1.37879 ± 0.00033 | 1.37618 ± 0.00033 | 1.37355 ± 0.00033 | – | – | –
[2], x2 = 0.0472 | – | – | – | 1.38079 ± 0.00032 | 1.37811 ± 0.00032 | 1.3754 ± 0.00032 | – | – | –
[2], x2 = 0.0979 | – | – | – | 1.3829 ± 0.00032 | 1.38016 ± 0.00032 | 1.37748 ± 0.00032 | – | – | –
[2], x2 = 0.1986 | – | – | – | 1.38711 ± 0.00032 | 1.38436 ± 0.00032 | 1.38159 ± 0.00032 | – | – | –
[2], x2 = 0.2973 | – | – | – | 1.39144 ± 0.00032 | 1.38857 ± 0.00032 | 1.38588 ± 0.00032 | – | – | –
[2], x2 = 0.3975 | – | – | – | 1.39592 ± 0.00032 | 1.3929 ± 0.00032 | 1.39029 ± 0.00032 | – | – | –
[2], x2 = 0.497 | – | – | – | 1.40055 ± 0.00032 | 1.39774 ± 0.00032 | 1.39494 ± 0.00032 | – | – | –
[2], x2 = 0.6045 | – | – | – | 1.40575 ± 0.00032 | 1.4026 ± 0.00032 | 1.40014 ± 0.00032 | – | – | –
[2], x2 = 0.6922 | – | – | – | 1.41006 ± 0.00032 | 1.40723 ± 0.00032 | 1.40443 ± 0.00032 | – | – | –
[2], x2 = 0.7984 | – | – | – | 1.4153 ± 0.00031 | 1.4125 ± 0.00031 | 1.4097 ± 0.00031 | – | – | –
[2], x2 = 0.8978 | – | – | – | 1.42041 ± 0.00031 | 1.41769 ± 0.00031 | 1.41473 ± 0.00031 | – | – | –
[2], x2 = 0.9476 | – | – | – | 1.42316 ± 0.00031 | 1.42035 ± 0.00031 | 1.41746 ± 0.00031 | – | – | –

Reference: the NIST ThermoML archive (doi:10.1016/j.jct.2008.03.011)
